Assay results from the supplement of paper PMC10627819.

How the values were obtained:
[1] = test system: B. subtilis 168; assay: Bliss interaction score (quartile over a dose matrix) (fitness difference); higher = more antagonism (negative = synergy)
Outline: (§1)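 Each OD595 reading at entry into stationary phase was scaled to the robust mean of the untreated wells on its plate, with a ceiling of 1. These ratios define fitness, and single-drug fitness was inferred from combinations. The Bliss score compares observed fitness with the product-based expectation and is reported as quartiles across all replicate types, technical, biological and donor/recipient.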

[2] = test system: S. aureus DSM 20231; assay: as above
Outline: as §1

[3] = test system: S. aureus Newman; assay: as above
Outline: as §1

[4] = test system: S. pneumoniae D39V; assay: as above
Outline: as §1

[5] = test system: B. subtilis 168; assay: fitness (endpoint OD595 vs no drug) (fraction); higher = more growth
Outline: (§2)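 At 37 °C, bacteria in TSB, LB Lennox or CY were grown in 384-well plates from a starting OD595 of 0.01. OD595 was measured every 30 min for 14 h, with the first reading used as background. Fitness is the optical density at the switch to stationary phase as a fraction of the robust mean of no-drug control wells, capped at 1.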

[6] = test system: S. aureus DSM 20231; assay: as above
Outline: as §2

[7] = test system: S. aureus Newman; assay: as above
Outline: as §2

[8] = test system: S. pneumoniae D39V; assay: as above
Outline: as §2
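Wherever Bliss interaction score (quartile over a dose matrix) is given: first quartile when negative (synergy) and third quartile when positive (antagonism).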
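Wherever fitness (endpoint OD595 vs no drug) is given: OD595 on entry to stationary phase over no-drug wells; at most 1.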

CCCCCCCCCC(=O)N[C@@H](Cc1c[nH]c2ccccc12)C(=O)N[C@H](CC(N)=O)C(=O)N[C@@H](CC(=O)O)C(=O)N[C@@H]1C(=O)NCC(=O)N[C@@H](CCCN)C(=O)N[C@@H](CC(=O)O)C(=O)N[C@H](C)C(=O)N[C@@H](CC(=O)O)C(=O)NCC(=O)N[C@H](CO)C(=O)N[C@@H]([C@H](C)CC(=O)O)C(=O)N[C@@H](CC(=O)c2ccccc2N)C(=O)O[C@@H]1C [Daptomycin] + Cc1cc(NS(=O)(=O)c2ccc(N)cc2)no1 [Sulfamethoxazol]
Conditions | Bliss interaction score
[1] | -0.0776
[2] | 0.041
[3] | 0.0337
[4] | 0.0745

one replicate
Conditions | fitness
[5], first compound 0.125 µg/mL, partner 0.5 µg/mL | 0.919
[5], first compound 0.25 µg/mL, partner 0.5 µg/mL | 0.908
[5], first compound 0.5 µg/mL, partner 0.5 µg/mL | 0.969
[5], first compound 1 µg/mL, partner 1 µg/mL | 0.719
[5], first compound 1 µg/mL, partner 2 µg/mL | 0.72
[5], first compound 1 µg/mL, partner 4 µg/mL | 0.645
[6], first compound 0.125 µg/mL, partner 1 µg/mL | 0.926
[6], first compound 0.125 µg/mL, partner 2 µg/mL | ≥ 1
[6], first compound 0.125 µg/mL, partner 4 µg/mL | ≥ 1
[6], first compound 0.25 µg/mL, partner 1 µg/mL | 0.951
[6], first compound 0.25 µg/mL, partner 2 µg/mL | ≥ 1
[6], first compound 0.25 µg/mL, partner 4 µg/mL | 0.974
[7], first compound 0.5 µg/mL, partner 8 µg/mL | 0.954
[7], first compound 1 µg/mL, partner 2 µg/mL | ≥ 1
[7], first compound 1 µg/mL, partner 4 µg/mL | 0.986
[7], first compound 1 µg/mL, partner 8 µg/mL | 0.973
[7], first compound 2 µg/mL, partner 2 µg/mL | 0.994
[7], first compound 2 µg/mL, partner 4 µg/mL | ≥ 1
[7], first compound 2 µg/mL, partner 8 µg/mL | 0.983

fitness
Conditions | partner 1 µg/mL | partner 2 µg/mL | partner 4 µg/mL
[5], first compound 0.125 µg/mL | 0.893 | 0.821 | 0.938
[5], first compound 0.25 µg/mL | 0.895 | 0.885 | 0.856
[5], first compound 0.5 µg/mL | 0.928 | 0.814 | –
[6], first compound 0.5 µg/mL | 0.914 | ≥ 1 | ≥ 1
[6], first compound 1 µg/mL | 0.918 | 0.988 | 0.976
[6], first compound 2 µg/mL | 0.913 | 0.988 | 0.963
[7], first compound 0.125 µg/mL | 0.967 | 0.99 | ≥ 1
[7], first compound 0.25 µg/mL | 0.967 | 0.977 | ≥ 1
[7], first compound 0.5 µg/mL | 0.992 | 0.971 | ≥ 1
[8], first compound 1 µg/mL | 0.932 | 0.95 | 0.964
[8], first compound 2 µg/mL | 0.924 | 0.901 | 0.935
[8], first compound 4 µg/mL | 0.916 | 0.938 | 0.938

CCN(CC)CCOC(=O)c1ccc(N)cc1 [Procaine] + CN(N=O)C(=O)N[C@@H](C=O)[C@@H](O)[C@H](O)[C@H](O)CO [Streptozotocin]
Conditions | Bliss interaction score
[1] | 0.0445
[2] | -0.076
[3] | 0.0489
[4] | 0.0574

fitness, [5], one replicate
Conditions | first compound 85.5 µg/mL | first compound 171 µg/mL | first compound 342 µg/mL
partner 0.15 µg/mL | 0.98 | 0.945 | 0.891
partner 0.3 µg/mL | 0.948 | 0.988 | 0.954
partner 0.6 µg/mL | 0.901 | 0.944 | 0.881

fitness
Conditions | first compound 85.5 µg/mL | first compound 171 µg/mL | first compound 342 µg/mL
[6], partner 0.15 µg/mL | 0.822 | 0.848 | 0.851
[6], partner 0.3 µg/mL | 0.724 | 0.799 | 0.786
[6], partner 0.6 µg/mL | 0.593 | 0.682 | 0.651
[7], partner 0.15 µg/mL | 0.894 | 0.85 | 0.904
[7], partner 0.3 µg/mL | 0.809 | 0.798 | 0.799
[7], partner 0.6 µg/mL | 0.624 | 0.602 | 0.617
[8], partner 1.2 µg/mL | 0.977 | 0.994 | 0.963
[8], partner 2.4 µg/mL | 0.994 | ≥ 1 | 0.945
[8], partner 4.8 µg/mL | 0.993 | ≥ 1 | 0.961

CCN(CC)CCOC(=O)c1ccc(N)cc1 [Procaine] + CN1C2=CC=CC=C2N=C3C1=CC=CC3=O [Pyocyanin]
Conditions | Bliss interaction score
[1] | -0.0724
[2] | -0.0817
[3] | 0.148
[4] | -0.0685

fitness
Conditions | first compound 85.5 µg/mL | first compound 171 µg/mL | first compound 342 µg/mL
[5], partner 1.25 µg/mL | 0.871 | 0.869 | 0.848
[5], partner 2.5 µg/mL | 0.846 | 0.863 | 0.748
[5], partner 5 µg/mL | 0.683 | 0.669 | 0.647
[6], partner 1.25 µg/mL | 0.938 | ≥ 1 | ≥ 1
[6], partner 2.5 µg/mL | 0.854 | 0.986 | ≥ 1
[6], partner 5 µg/mL | 0.54 | 0.591 | 0.56
[7], partner 1.25 µg/mL | 0.864 | 0.89 | 0.798
[7], partner 2.5 µg/mL | 0.782 | 0.748 | 0.776
[7], partner 5 µg/mL | – | 0.448 | –
[8], partner 0.325 µg/mL | ≥ 1 | 0.998 | 0.991
[8], partner 0.65 µg/mL | 0.975 | ≥ 1 | 0.966

[8], partner 1.3 µg/mL, one replicate
Conditions | fitness
first compound 85.5 µg/mL | 0.433
first compound 171 µg/mL | 0.585
first compound 342 µg/mL | 0.524

CCCCCCCCCC(=O)N[C@@H](Cc1c[nH]c2ccccc12)C(=O)N[C@H](CC(N)=O)C(=O)N[C@@H](CC(=O)O)C(=O)N[C@@H]1C(=O)NCC(=O)N[C@@H](CCCN)C(=O)N[C@@H](CC(=O)O)C(=O)N[C@H](C)C(=O)N[C@@H](CC(=O)O)C(=O)NCC(=O)N[C@H](CO)C(=O)N[C@@H]([C@H](C)CC(=O)O)C(=O)N[C@@H](CC(=O)c2ccccc2N)C(=O)O[C@@H]1C [Daptomycin] + C[C@@H]1O[C@@H]1P(=O)(O)O [Fosfomycin]
Conditions | Bliss interaction score
[1] | 0.063
[2] | -0.0509
[3] | 0.0452
[4] | 0.0735

fitness
Conditions | first compound 0.125 µg/mL | first compound 0.25 µg/mL | first compound 0.5 µg/mL | first compound 1 µg/mL | first compound 2 µg/mL | first compound 4 µg/mL
[5], partner 1.562 µg/mL | 0.686 | 0.728 | 0.771 | – | – | –
[5], partner 3.124 µg/mL | 0.642 | 0.645 | 0.625 | – | – | –
[5], partner 6.248 µg/mL | 0.492 | 0.468 | 0.511 | – | – | –
[6], partner 0.781 µg/mL | 0.742 | 0.659 | 0.818 | 0.879 | 0.778 | –
[6], partner 1.562 µg/mL | 0.589 | 0.586 | 0.621 | 0.609 | 0.601 | –
[6], partner 3.124 µg/mL | 0.498 | 0.496 | 0.505 | 0.495 | 0.508 | –
[7], partner 0.781 µg/mL | 0.657 | 0.674 | 0.703 | – | – | –
[7], partner 1.562 µg/mL | 0.536 | 0.534 | 0.534 | – | – | –
[7], partner 3.124 µg/mL | 0.233 | 0.172 | 0.16 | – | – | –
[8], partner 1.25 µg/mL | – | – | – | 0.93 | 0.919 | –
[8], partner 2.5 µg/mL | – | – | – | 0.844 | 0.845 | 0.767
[8], partner 5 µg/mL | – | – | – | 0.624 | 0.64 | 0.597

[5], first compound 1 µg/mL, one replicate
Conditions | fitness
partner 1.562 µg/mL | 0.7
partner 3.124 µg/mL | 0.501
partner 6.248 µg/mL | 0.305
